Experimental data taken from ChEMBL document CHEMBL1125053, “Dihydropyrimidine calcium channel blockers. 2. 3-substituted-4-aryl-1,4-dihydro-6-methyl-5-pyrimidinecarboxylic acid esters as potent mimics of dihydropyridines” (J Med Chem, 1990).

Each compound was assayed against Voltage-gated L-type calcium channel (Homo sapiens, UniProt Q13936+Q13698+Q01668+O60840) (assay: In vitro vasorelaxant activity (calcium channel blocking activity) was determined with potassium-depolarized rabbit thoracic aorta).
Format: functional, tissue-based

Compared with `CCOC(=O)N1C(=S)N=C(C)/C(=C(/O)OC(C)C)[C@H]1c1cccc([N+](=O)[O-])c1`, `CCOC(=O)N1C(=S)N=C(C)/C(=C(/O)OCC)C1c1cccc([N+](=O)[O-])c1` (centres undefined) is 8.5-fold higher in IC50: 2 nM for the first, 17 nM for the second.

Going from `CCCN1C(S)=NC(C)=C(C(=O)OCC)C1c1cccc([N+](=O)[O-])c1` (centres undefined) to `CCOC(=O)C1=C(C)N=C(OC)NC1c1cccc([N+](=O)[O-])c1` (centres undefined), the IC50 rises from 50 nM to 710 nM (14-fold).

Compared with `CCOC(=O)C1=C(C)NC(OCC)=C(C(=O)OCC)C1c1cccc([N+](=O)[O-])c1` (centres undefined), `CCOC(=O)C1=C(C)NC(SCC)=C(C(=O)OCC)C1c1cccc([N+](=O)[O-])c1` (centres undefined) is 6.5-fold lower in IC50: 26 nM for the first, 4 nM for the second.

Compared with `CCOC(=O)C1=C(C)NC(SC)=NC1c1cccc([N+](=O)[O-])c1` (centres undefined), `CCO/C(O)=C1\C(C)=NC(=S)N(C(=O)N(C)C)C1c1cccc([N+](=O)[O-])c1` (centres undefined) is 2.1-fold higher in IC50: 130 nM for the first, 270 nM for the second.

`CCOC(=O)N1C(=S)N=C(C)/C(=C(/O)OCC)C1c1ccccc1C(F)(F)F` (centres undefined) gave an IC50 of 26 nM.
